These results are taken from PubChem BioAssay (NCI).

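Test compounds were applied to cells in 96-well plates for 48 hours at 5 doses. GI50 marks 50% less growth. TGI denotes the concentration required for complete inhibition of growth.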 Where a SMILES comes first, the peptide text is derived from it. The star is where a group is joined. Boc = CC(C)(C)OC(=O)*; OBn = c1ccc(CO*)cc1 A value given as a limit tells only on which side of the number the result lay.

What all share (assay): inhibition of tumour cell growth, NCI panel, 48 h
The subject of assay [1] is OVCAR-4 ovarian.
Assay [2] concerns SK-OV-3 ovarian.
Assay [3] relates to UACC-257 melanoma.
The test system of assay [4] is HOP-62 NSCLC.
Assay [5] has as its system SNB-19 CNS.
The subject of assay [6] is MOLT-4 leukemia.
The subject of assay [7] is EKVX NSCLC.
Assay [8] deals with RXF 393 renal.

Consider `COc1cccc(/C=N/[N-]C(N)=O)c1[O-].[Ni+2].[OH3+].c1cnc2c(c1)ccc1cccnc12`, for which the TGI in assay [1], in assay [2], in assay [3], in assay [4], in assay [5] and in assay [6] was more than 100 µM throughout.

Take `O=c1c(C=Nc2ccc([N+](=O)[O-])cc2)c(O)n(-c2ccccc2)c(=O)n1-c1ccccc1`: the TGI in assay [1], in assay [7], in assay [2], in assay [3], in assay [4] and in assay [8] was more than 100 µM in each case. Moreover, the TGI in assay [5] and in assay [6] was more than 100 µM each time.

Take `COc1ccc2c(c1)n([O-])c(C#N)c(N1CCN(c3ccc([N+](=O)[O-])cc3)CC1)[n+]2=O`: the TGI in assay [1] is more than 100 µM; in assay [7], more than 100 µM; in assay [2] it was more than 59.5 µM; in assay [3], more than 100 µM; in assay [4], more than 71.4 µM; in assay [8], 41.8 µM. Further, in assay [5], the TGI was more than 100 µM.

Turning to `OC1(c2cc3ccccc3s2)CCCCC1`, the TGI in assay [1] is more than 100 µM; in assay [7], 71.7 µM; in assay [2], more than 100 µM; in assay [3], more than 100 µM; in assay [4] it was more than 100 µM; in assay [8], more than 100 µM. Besides, the TGI in assay [5] is more than 100 µM; in assay [6], 67.4 µM.

In the case of `Cc1ccc(C(C2C(=O)N(C)C(=O)N(C)C2=O)C(F)(F)C(=O)N(C)C)cc1` (centres undefined), the TGI in assay [1], in assay [7], in assay [2], in assay [3], in assay [4] and in assay [8] was more than 100 µM in each case. In assay [5], this compound showed a TGI of more than 100 µM.

As to `CSc1c(C#N)c(=O)[nH]c2n[nH]c(C)c12`, the TGI in assay [1], in assay [7], in assay [2], in assay [3], in assay [8] and in assay [5] was more than 100 µM in each case. For the same compound, in assay [6], the TGI was more than 100 µM.

In the case of `COC(=O)n1c(=O)n(-c2ccccc2)c(=O)n1C(=O)OC`, the TGI in assay [1], in assay [7], in assay [2], in assay [3], in assay [8] and in assay [5] was more than 100 µM throughout. Moreover, in assay [6], the TGI is more than 100 µM.

Consider `C=C(CC[C@@H](C(=O)O)[C@H]1[C@H](O)C[C@@]2(C)C3=CC[C@@H](C(=C)C)[C@](C)(CCC(=O)O)C3=CC[C@]12C)C(C)C`, for which the TGI turned out to be 36.3 µM in assay [1]; 32.3 µM in assay [7]; 31.9 µM in assay [2]; 30.6 µM in assay [3]; 34.5 µM in assay [8]; 32.9 µM in assay [5]. For the same compound, the TGI in assay [6] worked out at 64.4 µM.

`COP(=O)(OC)C(Cc1c[nH]c2ccccc12)NC(=O)OCc1ccccc1` (centres undefined): the TGI in assay [1], in assay [2], in assay [3], in assay [4] and in assay [5] was more than 100 µM in each case.

`CCOC(=O)/C=C(\C(=O)OCC)n1ccc(N)nc1=O`: the TGI in assay [1], in assay [7], in assay [2], in assay [3], in assay [4] and in assay [5] was more than 100 µM in each case. The TGI in assay [6] was more than 100 µM.

For `O=S1(=O)c2ccccc2C(=NO)c2ccccc21`, the TGI in assay [1], in assay [7], in assay [2], in assay [3], in assay [4] and in assay [8] was more than 100 µM each time. The compound further gave a TGI in assay [6] of more than 100 µM.

As for `CC(NC(=O)C(NC(=O)OC(C)(C)C)C(C)C)C(=O)N1CCCC1C(=O)NCC(=O)NC(C(=O)NCC(=O)OCc1ccccc1)C(C)C` (centres undefined) (Boc-VAPGVG-OBn; configuration not given here), the TGI in assay [1], in assay [7], in assay [2], in assay [3], in assay [4] and in assay [5] was more than 100 µM throughout.

As to `O=[N+]([O-])c1ccc(N=Nc2c(O)c(S(=O)(=O)O)cc3cc(S(=O)(=O)O)ccc23)cc1`, the TGI in assay [1], in assay [7], in assay [2], in assay [3], in assay [4] and in assay [5] was more than 100 µM each time. This compound also registered a TGI in assay [6] of more than 100 µM.

Take `O=C(NC1CCN(Cc2ccccc2)CC1)c1cc2nc(-c3ccc(Cl)s3)cc(C(F)(F)F)n2n1`: the GI50 is 12.7 µM in assay [1]; 61.6 µM in assay [2]; 27 µM in assay [4]; 3.23 µM in assay [8]; more than 100 µM in assay [5]; more than 100 µM in assay [6]. Also, the TGI was 49.3 µM in assay [1]; more than 100 µM in assay [2]; more than 100 µM in assay [4]; more than 100 µM in assay [8]; more than 100 µM in assay [5]; more than 100 µM in assay [6].

Take `[N-]=[N+]=NCc1cccc(Nc2cc(=O)[nH]c(=O)[nH]2)c1`: the TGI in assay [7], in assay [2], in assay [3], in assay [4], in assay [8] and in assay [5] was more than 100 µM throughout. Besides, the TGI in assay [6] was more than 100 µM.

Consider `Cc1ccc(N2CCc3c(C)c(C#N)c4nc5ccccc5n4c32)cc1`, for which the TGI in assay [1], in assay [2], in assay [3], in assay [4], in assay [8] and in assay [5] was more than 100 µM throughout.
